Results as given in US9567342B2, “Certain protein kinase inhibitors” (SHANGHAI FOCHON PHARMACEUTICAL CO., LTD., priority 2012, dated 2017).

Assays:
[1] = system: NCI-H2228 cells; test: In vivo antitumor activity, NCI-H2228 cells implanted sc in nude mice; conditions: QD, oral, NCI-H2228 xenograft
Method: Male nude mice (6-week old) were housed in a specific pathogen-free room with a 12 h light/dark schedule at 20-25° C. and were fed an autoclaved chow diet and water ad libitum.
NCI-H2228 cells at a density of […] in 200 μL were first implanted sc into the right flank of each nude mice and then allowed to grow to above 230 mm^3, the mice were randomly assigned into control and treatment groups (n=6 per group for compound treated group, n=12 per group for vehicle group). Vehicle control group were given vehicle alone, and treatment groups were received Compound 4, LDK378 or Crizotinib as indicated doses via oral administration once daily for 21 days. The mice tumor volumes in each group were measured twice per week.

[2] = system: SU-DHL-1 cells; test: Inhibition activity of cell proliferation (CCK-8 assay); format: cell-based; conditions: Homo sapiens, 72 h exposure
Method: SU-DHL-1 cells were seeded in 96-well tissue culture plates. On the next day, cells were exposed to various concentrations of compounds and further cultured for 72 h. Cell proliferation was then determined using Cell Counting Kit-8 [(CCK-8), Dojindo]assay. Briefly, add 10 μL of the CCK-8 solution to each well of the plate. Incubate the plate for 1-4 hours in the incubator. Measure the absorbance at 450 nm using a multi-well spectrophotometer (SpectraMAX 190, Molecular Devices). The inhibition rate (%) was calculated using the following equation: [1−(A450 Compound/A450 Control)]×100%. IC50 values were calculated according to inhibition curve by four-parameter fit.

SMILES: C[C@@H](Oc1cc(-c2cnn(C3CCNCC3)c2)cnc1N)c1c(Cl)ccc(F)c1Cl [Crizotinib]
- Mean relative tumor volume (RTV) ± S.E. ([1]; D0, 50 mg/kg): 100.00
- Mean relative tumor volume (RTV) ± S.E. ([1]; D4, 50 mg/kg): 67.71±
- Mean relative tumor volume (RTV) ± S.E. ([1]; D7, 50 mg/kg): 54.10
- Mean relative tumor volume (RTV) ± S.E. ([1]; D11, 50 mg/kg): 44.71
- Mean relative tumor volume (RTV) ± S.E. ([1]; D14, 50 mg/kg): 42.69
- Mean relative tumor volume (RTV) ± S.E. ([1]; D18, 50 mg/kg): 41.44
- Mean relative tumor volume (RTV) ± S.E. ([1]; D21, 50 mg/kg): 43.69
- IC50 [2]: 75.4 to 154 nM

SMILES: Cc1cc(Nc2nc(Nc3ccccc3S(=O)(=O)C(C)C)c3c(C)n[nH]c3n2)c2c(c1C1CCN(C)CC1)C[C@@H](C)O2 [Example 4]
- Mean relative tumor volume (RTV) ± S.E. ([1]; D0, 10 mg/kg): 100.00
- Mean relative tumor volume (RTV) ± S.E. ([1]; D4, 10 mg/kg): 52.92
- Mean relative tumor volume (RTV) ± S.E. ([1]; D7, 10 mg/kg): 36.55
- Mean relative tumor volume (RTV) ± S.E. ([1]; D11, 10 mg/kg): 29.20
- Mean relative tumor volume (RTV) ± S.E. ([1]; D14, 10 mg/kg): 18.82
- Mean relative tumor volume (RTV) ± S.E. ([1]; D18, 10 mg/kg): 9.48
- Mean relative tumor volume (RTV) ± S.E. ([1]; D21, 10 mg/kg): 5.28
- IC50 [2]: 10.9 nM

SMILES: CO[C@H](C)C(=O)N1CCC(c2c(C)cc(Nc3ncc(Cl)c(Nc4ccccc4S(=O)(=O)C(C)C)n3)c3c2C[C@H](C)O3)CC1 [Example 55, (R)-1-(4-((S)-7-((5-chloro-4-((2-(isopropylsulfonyl)phenyl)amino)pyrimidin-2-yl)amino)-2,5-dimethyl-2,3-dihydrobenzofuran-4-yl)piperidin-1-yl)-2-methoxypropan-1-one]
- IC50 [2]: 35.7 nM

SMILES: CO[C@H](C)C(=O)N1CCC(c2c(C)cc(Nc3ncc(Cl)c(Nc4ccccc4S(=O)(=O)C(C)C)n3)c3c2C[C@@H](C)O3)CC1 [Example 56, (R)-1-(4-((R)-7-((5-chloro-4-((2-(isopropylsulfonyl)phenyl)amino)pyrimidin-2-yl)amino)-2,5-dimethyl-2,3-dihydrobenzofuran-4-yl)piperidin-1-yl)-2-methoxypropan-1-one]
- IC50 [2]: 26.3 nM

SMILES: CO[C@@H](C)C(=O)N1CCC(c2c(C)cc(Nc3ncc(Cl)c(Nc4ccccc4S(=O)(=O)C(C)C)n3)c3c2C[C@@H](C)O3)CC1 [Example 57, (S)-1-(4-((R)-7-((5-chloro-4-((2-(isopropylsulfonyl)phenyl)amino)pyrimidin-2-yl)amino)-2,5-dimethyl-2,3-dihydrobenzofuran-4-yl)piperidin-1-yl)-2-methoxypropan-1-one]
- IC50 [2]: 32.8 nM

SMILES: CO[C@@H](C)C(=O)N1CCC(c2c(C)cc(Nc3ncc(Cl)c(Nc4ccccc4S(=O)(=O)C(C)C)n3)c3c2C[C@H](C)O3)CC1 [Example 58, (S)-1-(4-((S)-7-((5-chloro-4-((2-(isopropylsulfonyl)phenyl)amino)pyrimidin-2-yl)amino)-2,5-dimethyl-2,3-dihydrobenzofuran-4-yl)piperidin-1-yl)-2-methoxypropan-1-one]
- IC50 [2]: 141 nM

SMILES: Cc1cc(Nc2ncc(Cl)c(Nc3ccccc3S(=O)(=O)C(C)C)n2)c(OC(C)C)cc1C1CCNCC1 [LDK378]
- Mean relative tumor volume (RTV) ± S.E. ([1]; D0, 20 mg/kg): 100.00
- Mean relative tumor volume (RTV) ± S.E. ([1]; D4, 20 mg/kg): 71.66
- Mean relative tumor volume (RTV) ± S.E. ([1]; D7, 20 mg/kg): 56.79
- Mean relative tumor volume (RTV) ± S.E. ([1]; D11, 20 mg/kg): 49.09
- Mean relative tumor volume (RTV) ± S.E. ([1]; D14, 20 mg/kg): 48.58
- Mean relative tumor volume (RTV) ± S.E. ([1]; D18, 20 mg/kg): 35.67
- Mean relative tumor volume (RTV) ± S.E. ([1]; D21, 20 mg/kg): 31.44
- IC50 [2]: 94.6 to 339 nM
